In PubChem BioAssay AID328 (DTP/NCI, 2004):
Several values for one entry are separate records, joined by “and”; a condition that tells them apart may be missing. Equal values may be shown once. Inconclusive results and toxic doses are left out. The calls were made as follows: active = survival T/C of 150% or more; inactive = T/C below 125% in these data.

Tested on: BDF1 mice, P388 leukemia ip, median survival T/C
Assay: NCI In Vivo Anticancer Drug Screen. Data for tumor model P388 Leukemia (intraperitoneal) in B6D2F1 (BDF1) mice
Conditions: endpoint: median survival time, higher = longer survival
How it was run: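 Read-out is survival of treated animals expressed relative to the vehicle group, as a T/C ratio.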

[1] = dose: 50.0 mg/kg/injection, schedule: Q01DX009 (ip), vehicle: saline with Tween-80
[2] = dose: 100.0 mg/kg/injection, schedule: Q01DX009 (ip), vehicle: saline with Tween-80
[3] = dose: 100.0 mg/kg/injection, schedule: Q04DX003 (ip), vehicle: saline with Tween-80
[4] = dose: 200.0 mg/kg/injection, schedule: Q01DX009 (ip), vehicle: saline with Tween-80
[5] = dose: 200.0 mg/kg/injection, schedule: Q04DX003 (ip), vehicle: saline with Tween-80
[6] = dose: 400.0 mg/kg/injection, schedule: Q01DX009 (ip), vehicle: saline with Tween-80
[7] = dose: 400.0 mg/kg/injection, schedule: Q04DX003 (ip), vehicle: saline with Tween-80

Measured: T/C

CS(=O)/C=C(\c1ccccc1)c1cccs1 (centres undefined)
inactive: [1] 96 % of control | [2] 100 % of control

CC(C)(C1=CC=CS1(=O)=O)C1=CC=C(C(C)(C)C2=CC=CS2(=O)=O)S1(=O)=O
inactive: dose: 100.0 mg/kg/injection, schedule: Q01DX001 (ip), vehicle: saline with Tween-80 102 % of control | dose: 200.0 mg/kg/injection, schedule: Q01DX001 (ip), vehicle: saline with Tween-80 94 % of control | dose: 400.0 mg/kg/injection, schedule: Q01DX001 (ip), vehicle: saline with Tween-80 106 % of control

O=C(O)c1c[nH]c2nccnc12
inactive: dose: 25.0 mg/kg/injection, schedule: Q01DX009 (ip), vehicle: water 98 % of control | dose: 25.0 mg/kg/injection, schedule: Q04DX003 (ip), vehicle: water 103 % of control | dose: 50.0 mg/kg/injection, schedule: Q04DX003 (ip), vehicle: water 99 % of control | dose: 100.0 mg/kg/injection, schedule: Q01DX009 (ip), vehicle: water 88 % of control | dose: 100.0 mg/kg/injection, schedule: Q04DX003 (ip), vehicle: water 103 % of control | dose: 200.0 mg/kg/injection, schedule: Q04DX003 (ip), vehicle: water 103 % of control | dose: 400.0 mg/kg/injection, schedule: Q04DX003 (ip), vehicle: water 92 % of control

COc1ccc(CNCCNCCNCc2ccc(OC)cc2)cc1
inactive: dose: 25.0 mg/kg/injection, schedule: Q01DX009 (ip), vehicle: saline with Tween-80 87 % of control | [1] 105 % of control | [2] 101 % of control and 105 % of control | [3] 122 % of control | [4] 93 % of control | [5] 111 % of control | [6] 101 % of control | [7] 122 % of control

O=C(/C=C/C=C/c1ccccc1)c1ccc(Cl)cc1
inactive: [2] 115 % of control | [3] 100 % of control | [4] 115 % of control | [5] 90 % of control | [6] 110 % of control | [7] 109 % of control

COc1cccc(/C=C/[N+](=O)[O-])c1OC
inactive: dose: 6.25 mg/kg/injection, schedule: Q01DX009 (ip), vehicle: Klucel (hydroxypropylcellulose) (HPC) 113 % of control | dose: 6.25 mg/kg/injection, schedule: Q01DX009 (ip), vehicle: saline 100 % of control | dose: 12.5 mg/kg/injection, schedule: Q01DX009 (ip), vehicle: saline 106 % of control | dose: 12.5 mg/kg/injection, schedule: Q01DX010 (ip), vehicle: carboxymethylcellulose (CMC) 115 % of control | dose: 25.0 mg/kg/injection, schedule: Q01DX009 (ip), vehicle: saline 104 % of control | dose: 35.0 mg/kg/injection, schedule: Q01DX009 (ip), vehicle: Klucel (hydroxypropylcellulose) (HPC) 117 % of control | dose: 50.0 mg/kg/injection, schedule: Q01DX009 (ip), vehicle: saline 113 % of control | dose: 50.0 mg/kg/injection, schedule: Q04DX003 (ip), vehicle: saline 102 % of control | dose: 100.0 mg/kg/injection, schedule: Q01DX009 (ip), vehicle: saline 104 % of control | dose: 100.0 mg/kg/injection, schedule: Q04DX003 (ip), vehicle: saline 98 % of control | dose: 200.0 mg/kg/injection, schedule: Q01DX009 (ip), vehicle: saline 91 % of control | dose: 200.0 mg/kg/injection, schedule: Q04DX003 (ip), vehicle: saline 95 % of control | dose: 400.0 mg/kg/injection, schedule: Q01DX009 (ip), vehicle: saline 91 % of control | dose: 400.0 mg/kg/injection, schedule: Q04DX003 (ip), vehicle: saline 106 % of control

O=C1C=CC(=O)N1
inactive: dose: 0.26 mg/kg/injection, schedule: Q01DX009 (ip), vehicle: saline 105 % of control | dose: 0.4 mg/kg/injection, schedule: Q01DX009 (ip), vehicle: saline 90 % of control | dose: 0.61 mg/kg/injection, schedule: Q01DX009 (ip), vehicle: saline 100 % of control | dose: 0.93 mg/kg/injection, schedule: Q01DX009 (ip), vehicle: saline 109 % of control | dose: 1.39 mg/kg/injection, schedule: Q01DX009 (ip), vehicle: saline 118 % of control | dose: 3.6 mg/kg/injection, schedule: Q04DX003 (ip), vehicle: saline 95 % of control | dose: 8.5 mg/kg/injection, schedule: Q04DX003 (ip), vehicle: saline 104 % of control

COc1ccc(/C(C#N)=C\c2ccnc3ccccc23)cc1
inactive: dose: 12.5 mg/kg/injection, schedule: Q01DX009 (ip), vehicle: other 89 % of control | dose: 25.0 mg/kg/injection, schedule: Q01DX009 (ip), vehicle: other 93 % of control | dose: 50.0 mg/kg/injection, schedule: Q01DX009 (ip), vehicle: other 90 % of control | dose: 200.0 mg/kg/injection, schedule: Q01DX009 (ip), vehicle: other 100 % of control

COc1ccccc1C1(O)c2ccccc2Sc2cccc(OC)c21 (centres undefined)
inactive: [2] 104 % of control | [4] 100 % of control | [6] 95 % of control
